From publication PMC7822874, “Chemoprotective antimalarials identified through quantitative high-throughput screening of Plasmodium blood and liver stage parasites” (Scientific Reports, 2021)
Like-named read-outs stand apart in the source and are kept apart here.

Tests used:
[1] = test system: P. berghei-ANKA-GFP-LucCON liver stage parasites in HepG2-A16-CD81EGFP cells; assay: P. berghei liver stage Pb-Luc assay, Method 1 (UCSD, 1536-well); type: cell-based, Plasmodium berghei; details: Plasmodium berghei, 48 h; on Pb-Luc signal, 1 uM, repeat 1: reference of the scale not given here; on Pb-Luc signal, 1 uM, repeat 2: reference of the scale not given here; on Pb-Luc signal, 1 uM, repeat 3: reference of the scale not given here; on Pb-Luc signal, 3 uM, repeat 1: reference of the scale not given here; on Pb-Luc signal, 3 uM, repeat 2: reference of the scale not given here; on Pb-Luc signal, 3 uM, repeat 3: reference of the scale not given here
[2] = test system: Plasmodium falciparum Dd2 asexual blood stage parasites; assay: microbe, parasite or virus in culture; parameters: species or system Plasmodium falciparum Dd2 in human erythrocytes; single determination (one 11-point concentration-response curve); details: Plasmodium falciparum, DD2, Erythrocyte, 72 h
in vitro = details: human
[3] = nominal 1 uM (10 mM stock), […] for 15 mM, 1.2 uM for 12 mM, 2 uM for 20 mM stock, average of 2 wells, repeat 2
[4] = nominal 3 uM (10 mM stock), 4.5 uM for 15 mM, 3.6 uM for 12 mM, 6 uM for 20 mM stock, average of 2 wells, repeat 2
[5] = nominal 1 uM (10 mM stock), […] for 15 mM, 1.2 uM for 12 mM, 2 uM for 20 mM stock, average of 2 wells, 1536-well plate, repeat 1, read-out: Pb-Luc signal, 1 uM, repeat 1
[6] = nominal 1 uM (10 mM stock), […] for 15 mM, 1.2 uM for 12 mM, 2 uM for 20 mM stock, average of 2 wells, 1536-well plate, repeat 2, read-out: Pb-Luc signal, 1 uM, repeat 2
[7] = nominal 1 uM (10 mM stock), […] for 15 mM, 1.2 uM for 12 mM, 2 uM for 20 mM stock, average of 2 wells, 1536-well plate, repeat 3, read-out: Pb-Luc signal, 1 uM, repeat 3
[8] = nominal 3 uM (10 mM stock), 4.5 uM for 15 mM, 3.6 uM for 12 mM, 6 uM for 20 mM stock, average of 2 wells, 1536-well plate, repeat 1, read-out: Pb-Luc signal, 3 uM, repeat 1
[9] = nominal 3 uM (10 mM stock), 4.5 uM for 15 mM, 3.6 uM for 12 mM, 6 uM for 20 mM stock, average of 2 wells, 1536-well plate, repeat 2, read-out: Pb-Luc signal, 3 uM, repeat 2
[10] = nominal 3 uM (10 mM stock), 4.5 uM for 15 mM, 3.6 uM for 12 mM, 6 uM for 20 mM stock, average of 2 wells, 1536-well plate, repeat 3, read-out: Pb-Luc signal, 3 uM, repeat 3
[11] = HepG2-A16-CD81EGFP cells, uninfected
[12] = read-out: Pb-Luc P. berghei liver stage signal, repeat 1
[13] = read-out: Pb-Luc P. berghei liver stage signal, repeat 2
[14] = read-out: Pb-Luc P. berghei liver stage signal, repeat 3

Row | Compound | HepG2 viability signal, 1 uM, repeat 2 (HepG2-A16-CD81EGFP cells; [3]) | HepG2 viability signal, 3 uM, repeat 2 (HepG2-A16-CD81EGFP cells; [4]) | activity at 1 µM [1, 5] | activity at 1 µM [1, 6] | activity at 1 µM [1, 7] | activity at 3 µM [1, 8] | activity at 3 µM [1, 9] | activity at 3 µM [1, 10] | AC50 ([2]; read-out: AC50) | viability at 48 h, 1 µM (in vitro; [11]) | viability at 48 h, 3 µM (in vitro; [11]) | also measured
1 | CC1=C[C@@H](CN(C)C)[C@H](C(C)C)C[C@H]1Cc1nc2ncc(Cl)cc2[nH]1 [NCGC00421128-01] | 100.56% | 100.80% | 85.6% | 76% | 112% | 59.7% | 57.2% | 82.1% | 21700 nM | 106% | 108% | –
2 | CN1CCN(C(=O)c2ccc3c(c2)N(Cc2ccc(C(F)(F)F)cc2)C(=O)c2ccccc2S3)CC1 [NCGC00108242-01] | 102.88% | 103.88% | 104% | 123% | 103% | 91% | 99.2% | 92.4% | 531 nM | 99.8% | 101% | –
3 | COC(=O)c1ccc2[nH]c(C[C@@H]3C[C@@H](C(C)C)[C@H](CNC4CCCCC4)C=C3C)nc2c1 [NCGC00401987-01] | 103.84% | 105.05% | 81.1% | 132% | 98.9% | 56.8% | 65% | 83.4% | 8410 nM | 99.2% | 102% | –
4 | COc1cccc([C@@H]2CCN(Cc3[nH]c4ccccc4c3C)C[C@H]2O)c1 [NCGC00443267-01] | – | – | 83.1% | 92.1% | 74.1% | 85.2% | 118% | 62.2% | 1500 nM | – | – | HepG2 viability signal, 1 uM, repeat 2 (HepG2-A16-CD81EGFP cells; human, 48 h, 1 µM): 93.46%; HepG2 viability signal, 3 uM, repeat 2 (HepG2-A16-CD81EGFP cells; human, 48 h, 3 µM): 93.99%; viability at 48 h, 1 µM (in vitro): 91.9%; viability at 48 h, 3 µM (in vitro): 96.2%
5 | Fc1ccc(N2CCCN(C[C@H]3[C@@H]4CNC[C@@H]43)CC2)cc1 [NCGC00435915-01] | 103.90% | 120.28% | 97.7% | 120% | 120% | 53.5% | 38.2% | 21.5% | 8410 nM | 102% | 124% | –
6 | COc1ccc(-c2noc(-c3cccn3CC(=O)Nc3ccccc3)n2)cc1F [NCGC00445500-01] | 98.82% | 102.85% | 155% | 167% | 187% | 187% | 192% | 169% | 2370 nM | 103% | 105% | –
7 | O[C@H]1CC[C@@H](Cc2cc(-c3ccc(F)cc3)on2)O[C@@H]1CNC1CCCCC1 [NCGC00401034-01] | 105.13% | 100.53% | 123% | 102% | 154% | 112% | 106% | 134% | 2430 nM | 104% | 107% | –
8 | CCN1CCN(c2cc(C)c3cc(NC(=O)c4cc(OC)c(OC)c(OC)c4)ccc3n2)CC1 [NCGC00137500-01] | 103.37% | 106.17% | 125% | 156% | 138% | 126% | 103% | 114% | 1330 nM | 100% | 103% | –
9 | CC1=C(C(=O)Nc2ccc(C)cc2C)C(c2cc(Br)ccc2F)n2ncc(C(=O)Nc3ccc(C)cc3)c2N1 (centres unmarked) [NCGC00126328-01] | 98.10% | 99.55% | 99.2% | 113% | 121% | 61.3% | 103% | 73.4% | 1500 nM | 100% | 107% | –
10 | CCN1CCN(C(=O)c2ccc3c(c2)N(Cc2ccc(Cl)cc2)C(=O)c2ccccc2[S+]3[O-])CC1 (centres unmarked) [NCGC00109464-01] | 105.55% | 102.35% | 104% | 92.1% | 102% | 83.2% | 80.5% | 103% | 668 nM | 110% | 108% | –
11 | Cc1ccc(O)c([C@H](CCN(C(C)C)C(C)C)c2ccccc2)c1 [NCGC00159519-02] | – | – | – | – | – | – | – | – | – | – | – | HepG2 viability, fourth HepG2 column (HepG2-A16-CD81EGFP cells; human): 99.21%; HepG2 viability, second HepG2 column (HepG2-A16-CD81EGFP cells; human): 104.09%; HepG2 viability, third HepG2 column (HepG2-A16-CD81EGFP cells; human): 100.98%; activity at 1 µM [1, 12]: 106%; activity at 3 µM [1, 12]: 74.9%; activity at 1 µM [1, 13]: 80%; activity at 3 µM [1, 13]: 85.4%; activity at 1 µM [1, 14]: 106%; activity at 3 µM [1, 14]: 89%; AC50 [2]: 4220 nM; viability (in vitro): 103%
12 | COc1ccc2[nH]c(C[C@@H]3C[C@@H](C(C)C)[C@H](CNCc4ccccc4OC)C=C3C)nc2c1 [NCGC00392082-01] | 98.07% | 97.57% | 67% | 80.5% | 77.5% | 48.5% | 52% | 40.1% | 9440 nM | 99% | 97.1% | –
13 | Cc1ccc(C)c(Cn2c(=O)n(CCCCC(=O)NCc3ccc4c(c3)OCO4)c(=O)c3ccccc32)c1 [NCGC00106276-01] | 102.61% | 103.78% | 69% | 120% | 109% | 132% | 95.7% | 87.2% | 6680 nM | 99.1% | 93.3% | –
